Assay results reported in patent publication US12018041B2, “Metal tin cyclized perylene diimide derivative, method for preparing the same, and method for using the same” (Dalian University of Technology, priority 2019, dated 2024).

Tests used:
[1] = Transient absorption spectrum and triplet decay; type: physicochemical; details: dynamic absorption fitting at 485 nm in the transient absorption spectrum
Protocol: (2) The transient absorption spectrum of 6-undecylamine derived tin cyclized perylene diimide (shown in FIG. 2) was tested, and a strong excited triplet absorption at 400 nm-515 nm was detected.
The decay time is 17 μs. 6-undecylamine derived tin cyclized perylene diimide has a relatively long triplet time life.

[2] = UV-Vis absorption spectrum in a solution state; type: physicochemical; details: compared with the corresponding perylene diimide without tin ring
[3] = test system: cervical cancer cells; experiment: DCFH-DA reactive oxygen imaging in cervical cancer cells; type: cell-based; details: cervical cancer cells with DCFH-DA
Text: (5) The application of photosensitizers to photodynamic therapy requires the photosensitizers to have low cytotoxicity and capability of entering cells, and to achieve better singlet oxygen output in the cells. In cervical cancer cells, the fluorescent probe DCFH-DA, as a reactive oxygen detection reagent, is non-fluorescent and can freely penetrate the cell membrane to enter the cell. The reactive oxygen species (single oxygen) in the cells can oxidize the non-fluorescent DCFH to produce a fluorescent DCF, and the level of the reactive oxygen species can be known by detecting the fluorescence intensity of DCF. […] In the figure, fluorescence images of the cervical cancer cells, which are cultured in the presence of 6-undecylamine derived tin cyclized perylene diimide and DCFH-DA, subjected to no light, and 10 s, 20 s, 30 s of […] green light irradiation are respectively presented from left to right. It is known from the figure that the singlet oxygen generated from photosensitization of 6-undecylamine derived tin cyclized perylene diimide oxidizes DCFH to produce fluorescent DCF, which makes the fluorescence of cervical cancer cells appear by imaging, and the imaging effect becomes better along with the time.

[4] = Singlet oxygen quantum yield by DPBF capture in DCM; type: physicochemical; details: absorbance change at 414 nm
Text: (4) The triplet energy of the photosensitizer can be transferred to triplet oxygen molecules (^3O2), to produce singlet oxygen molecules (^1O2). 1,3-diphenylisobenzofuran (DPBF) is used to capture singlet oxygen, and at the same time, DPBF itself is oxidized by ^1O2, resulting in a decrease in the absorption peak of DPBF at 414 nm in the UV-visible absorption spectrum. The singlet oxygen quantum yield of the photosensitizer molecule can be calculated by monitoring the absorbance change of DPBF at 414 nm. FIG. 4 is a graph showing decay of a UV-visible absorption of DPBF in DCM with time under the influence of 6-undecylamine derived tin cyclized perylene diimide as a photosensitizer. It is known from calculation that the singlet oxygen quantum yield of 6-undecylamine derived tin cyclized perylene diimide is 40%.

CCCCCC(CCCCC)N1C(=O)c2ccc3c4ccc5c6c(c[c]7c(c8[c](cc(c2c38)C1=O)[Sn]7([CH2]CCC)[CH2]CCC)c64)C(=O)N(C(CCCCC)CCCCC)C5=O [6-undecylamine derived tin cyclized perylene diimide]
Triplet decay time [1]: 17 μs
Absorption spectrum [2]: obvious red shift
irradiation time after which fluorescence intensity of cervical cancer cells no longer changes ([3]; 420 nm green light irradiation): 20 s
singlet oxygen effect in cells (DCF fluorescence) ([3]; no light and 10 s, 20 s, 30 s of 420 nm green light irradiation): good singlet oxygen effect in cells
Singlet oxygen quantum yield [4]: 40%

CCCCCC(CC(C)CCC)N1C(=O)c2ccc3c4ccc5c6c(c[c]7c(c8[c](cc(c2c38)C1=O)[Sn]7([CH2]CCC)[CH2]CCC)c64)C(=O)N(C(CCCCC)CC(C)CCC)C5=O (centres unmarked) [Example B4]
Triplet decay time [1]: 17 μs
Absorption spectrum [2]: red shift
Singlet oxygen quantum yield [4]: 47%

CCC[CH2][Sn]1([CH2]CCC)[c]2cc3c4c(ccc5c6ccc7c8c(c[c]1c(c2c45)c86)C(=O)N(CC(C)C)C7=O)C(=O)N(CC(C)C)C3=O [Example B6]
Triplet decay time [1]: 18 μs
Absorption spectrum [2]: red shift
Singlet oxygen quantum yield [4]: 29%

CCC[CH2][Sn]1([CH2]CCC)[c]2cc3c4c(ccc5c6ccc7c8c(c[c]1c(c2c45)c86)C(=O)N(CCCC(C)C)C7=O)C(=O)N(CCCCC(CC)CCC)C3=O (centres unmarked) [Example B10]
Triplet decay time [1]: 12 μs
Absorption spectrum [2]: red shift
Singlet oxygen quantum yield [4]: 26%

CCC[CH2][Sn]1([CH2]CCC)[c]2cc3c4c(ccc5c6ccc7c8c(c[c]1c(c2c45)c86)C(=O)N(c1ccc(C(C)(C)C)cc1)C7=O)C(=O)N(c1ccc(C(C)(C)C)cc1)C3=O [Example B14]
Triplet decay time [1]: 14 μs
Absorption spectrum [2]: red shift
Singlet oxygen quantum yield [4]: 33%

CCC[CH2][Sn]1([CH2]CCC)[c]2cc3c4c(ccc5c6ccc7c8c(c[c]1c(c2c45)c86)C(=O)N(c1cccc2[nH]ncc12)C7=O)C(=O)N(c1cccc2[nH]ncc12)C3=O [Example B16]
Triplet decay time [1]: 19 μs
Absorption spectrum [2]: red shift
Singlet oxygen quantum yield [4]: 46%

CCC[CH2][Sn]1([CH2]CCC)[c]2cc3c4c(ccc5c6ccc7c8c(c[c]1c(c2c45)c86)C(=O)N(c1cccc2ccccc12)C7=O)C(=O)N(c1cccc2ccccc12)C3=O [Example B17]
Triplet decay time [1]: 11 μs
Absorption spectrum [2]: red shift
Singlet oxygen quantum yield [4]: 36%

CCC[CH2][Sn]1([CH2]CCC)[c]2cc3c4c(ccc5c6ccc7c8c(c[c]1c(c2c45)c86)C(=O)N(c1ccncc1)C7=O)C(=O)N(c1ccncc1)C3=O [Example B20]
Triplet decay time [1]: 25 μs
Absorption spectrum [2]: red shift
Singlet oxygen quantum yield [4]: 42%

CCC[CH2][Sn]1([CH2]CCC)[c]2cc3c4c(ccc5c6ccc7c8c(c[c]1c(c2c45)c86)C(=O)N(C1CCNCC1)C7=O)C(=O)N(C1CCNCC1)C3=O [Example B22]
Triplet decay time [1]: 21 μs
Absorption spectrum [2]: red shift
Singlet oxygen quantum yield [4]: 44%
